Assay results from PubChem BioAssay (NCI).
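Assay format: 96-well plates, 48-hour exposure. Here, GI50 denotes the concentration required for 50% inhibition of growth. TGI: total growth inhibition.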

Key:
Test in all cases: NCI anticancer screen, dose series, 48 h
SW-620 colon = test system: SW-620 colon
A498 renal = test system: A498 renal
NCI-H522 lung = test system: NCI-H522 lung
M14 melanoma = test system: M14 melanoma
HOP-92 NSCLC = test system: HOP-92 NSCLC
SF-295 CNS = test system: SF-295 CNS
SK-MEL-2 melanoma = test system: SK-MEL-2 melanoma
SK-MEL-28 melanoma = test system: SK-MEL-28 melanoma
T-47D breast = test system: T-47D breast
MDA-MB-435 = test system: MDA-MB-435

| Compound | GI50 (SW-620 colon) | TGI (SW-620 colon) | GI50 (A498 renal) | TGI (A498 renal) | GI50 (NCI-H522 lung) | TGI (NCI-H522 lung) | GI50 (M14 melanoma) | TGI (M14 melanoma) | GI50 (HOP-92 NSCLC) | TGI (HOP-92 NSCLC) | GI50 (SF-295 CNS) | TGI (SF-295 CNS) | GI50 (SK-MEL-2 melanoma) | TGI (SK-MEL-2 melanoma) | GI50 (SK-MEL-28 melanoma) | TGI (SK-MEL-28 melanoma) | GI50 (T-47D breast) | TGI (T-47D breast) | GI50 (MDA-MB-435) | TGI (MDA-MB-435) |
| --- | --- | --- | --- | --- | --- | --- | --- | --- | --- | --- | --- | --- | --- | --- | --- | --- | --- | --- | --- | --- |
| CC(=O)[CH-]C(=O)c1ccccc1.CC(=O)[CH-]C(=O)c1ccccc1.CC(=O)[CH-]C(=O)c1ccccc1.[Br-].[Zr+4] | > 100 µM | > 100 µM | 24.9 µM | > 100 µM | 93.2 µM | > 100 µM | 45 µM | > 100 µM | 18.6 µM | 61.4 µM | 33.8 µM | > 100 µM | 38.5 µM | > 100 µM | 55.3 µM | > 100 µM |  |  |  |  |
| O=C(O)CCSC(=O)Nc1ccccc1 |  | > 100 µM |  | > 100 µM |  |  |  | > 100 µM |  |  |  | > 100 µM |  | > 100 µM |  | > 100 µM |  |  |  |  |
| O=C1CCc2ccc(O)c(c2)Oc2ccc(cc2)[C@@H]2O[C@@H]2CO1 |  | > 100 µM |  | 70.7 µM |  |  |  | > 100 µM |  | 88.2 µM |  | > 100 µM |  | > 100 µM |  | > 100 µM |  |  |  |  |
| CCOC(=O)c1cc2c(n1Cc1ccccc1OC)-c1oncc1CCC2 | 2.02 µM | > 100 µM | 3.46 µM | > 100 µM | 0.351 µM | 2.88 µM | 3.67 µM | > 100 µM | 0.309 µM | 7.43 µM | 1.38 µM | 6.1 µM |  |  | > 100 µM | > 100 µM | 2.46 µM | > 100 µM | 0.351 µM | > 100 µM |
| O=C(Nc1ccc(Cl)cc1)N1CCN(c2ccc3nncn3n2)CC1 | 60.8 µM | > 100 µM | 11.2 µM | 96.6 µM |  |  | 56.2 µM | > 100 µM | 31.7 µM | > 100 µM | 53.4 µM | > 100 µM | 65.4 µM | > 100 µM | > 100 µM | > 100 µM | 29.4 µM | > 100 µM | 64.3 µM | > 100 µM |
| CN(C)CCNC(=O)c1cccc2c1nc(-c1ccncc1)c1ccccc12 |  | 19.1 µM |  | 7.67 µM |  |  |  | 16.8 µM |  | 9.77 µM |  | 15.9 µM |  | 19.1 µM |  | 17.6 µM |  |  |  |  |
| CC(=N/NC(N)=S)/C(C)=N/NC(N)=S |  | > 100 µM |  |  |  | > 100 µM |  | > 100 µM |  |  |  |  |  | > 100 µM |  | > 100 µM |  |  |  | > 100 µM |
| COc1ccc(NC(=O)c2cccc(C3CCc4c(cc(OC)c(OC)c4OC)O3)c2)cc1 (stereo not drawn) | 4.45 µM | > 100 µM | 1.37 µM | 5.7 µM | 2.29 µM | 7.37 µM | 2.6 µM | > 100 µM | 0.29 µM | 3.49 µM |  |  | 2.95 µM | 8.79 µM | 4.12 µM | > 100 µM | 2.49 µM | 7.48 µM | 0.528 µM | 9.92 µM |
| C/C=C1/C(=Cc2[nH]c(C=c3[nH]/c(=C/C4=NC(=O)C(CC)=C4C)c(C)c3CCC(=O)O)c(CCC(=O)O)c2C)NC(=O)C1C (stereo not drawn) |  | > 50 µM |  |  |  | 39.7 µM |  | 6.11 µM |  | 15.9 µM |  | 18.5 µM |  | 20.3 µM |  | > 50 µM |  |  |  |  |
| CCOC(=O)CCn1cnc(N)n1 |  | > 100 µM |  |  |  | > 100 µM |  | > 100 µM |  | > 100 µM |  | > 100 µM |  | > 100 µM |  | > 100 µM |  |  |  |  |
| O=C(NCc1ccccc1)C1C(=O)C(=O)N(Cc2ccccc2)C1=O (stereo not drawn) |  | > 100 µM |  | > 100 µM |  | > 100 µM |  | > 100 µM |  | > 100 µM |  | > 100 µM |  | > 100 µM |  | > 100 µM |  |  |  |  |
